We go through eleven compounds from publication PMC3171737 (Journal of medicinal chemistry, 2011).

Read-outs that look alike come from different tables or passages of the source. A value given as a limit tells only on which side of the number the result lay.

In assay [1] the test system is H3K9me2 levels in MDA-MB-231 cells. The experiment in a line: H3K9me2 In-Cell Western. In kind it is cell-based.
A further assay deals with MDA-MB-231 cells. The experiment in a line: MTT cell toxicity assay, MDA-MB-231. In kind it is cell-based. Conditions: Homo sapiens, MDA-MB-231, 48 h, read-out: MTT EC50. (In general: Tetrazolium assays rely on reduction of a dye to a coloured formazan, in cell work by metabolically active cells.)
The test system of assay [2] is H3K9me2 levels in MCF7 cells. The assay is described as follows: H3K9me2 ICW assay, MCF7. In kind it is cell-based. Conditions: Homo sapiens, MCF7, 48 h, read-out: ICW IC50.
Assay [3] has as its system H3K9me2 levels in PC3 cells. The experiment in a line: H3K9me2 ICW assay, PC3. Conditions: Homo sapiens, PC-3, 48 h, read-out: ICW IC50. Format: cell-based.
Assay [4] relates to H3K9me2 levels in 22RV1 cells. The assay is described as follows: H3K9me2 ICW assay, 22RV1. Conditions: Homo sapiens, 22Rv1, 48 h, read-out: ICW IC50. In kind it is cell-based.
Assay [5] deals with H3K9me2 levels in HCT116 wt cells. The experiment in a line: H3K9me2 ICW assay, HCT116 wt. In kind it is cell-based. Conditions: Homo sapiens, HCT-116, 48 h, read-out: ICW IC50.
The test system of a further assay is HCT116 wt cells. The assay is described as follows: MTT assay, HCT116 wt. In kind it is cell-based. Conditions: Homo sapiens, HCT-116, 48 h, read-out: MTT EC50.
The subject of the next assay is HCT116 p53−/− cells. The experiment in a line: MTT assay, HCT116 p53−/−. In kind it is cell-based. Conditions: Homo sapiens, HCT-116, 48 h, read-out: MTT EC50.
The next assay addresses T1, G9a (Homo sapiens, UniProt Q96KQ7).
T1 sequence (Q96KQ7 1-1210): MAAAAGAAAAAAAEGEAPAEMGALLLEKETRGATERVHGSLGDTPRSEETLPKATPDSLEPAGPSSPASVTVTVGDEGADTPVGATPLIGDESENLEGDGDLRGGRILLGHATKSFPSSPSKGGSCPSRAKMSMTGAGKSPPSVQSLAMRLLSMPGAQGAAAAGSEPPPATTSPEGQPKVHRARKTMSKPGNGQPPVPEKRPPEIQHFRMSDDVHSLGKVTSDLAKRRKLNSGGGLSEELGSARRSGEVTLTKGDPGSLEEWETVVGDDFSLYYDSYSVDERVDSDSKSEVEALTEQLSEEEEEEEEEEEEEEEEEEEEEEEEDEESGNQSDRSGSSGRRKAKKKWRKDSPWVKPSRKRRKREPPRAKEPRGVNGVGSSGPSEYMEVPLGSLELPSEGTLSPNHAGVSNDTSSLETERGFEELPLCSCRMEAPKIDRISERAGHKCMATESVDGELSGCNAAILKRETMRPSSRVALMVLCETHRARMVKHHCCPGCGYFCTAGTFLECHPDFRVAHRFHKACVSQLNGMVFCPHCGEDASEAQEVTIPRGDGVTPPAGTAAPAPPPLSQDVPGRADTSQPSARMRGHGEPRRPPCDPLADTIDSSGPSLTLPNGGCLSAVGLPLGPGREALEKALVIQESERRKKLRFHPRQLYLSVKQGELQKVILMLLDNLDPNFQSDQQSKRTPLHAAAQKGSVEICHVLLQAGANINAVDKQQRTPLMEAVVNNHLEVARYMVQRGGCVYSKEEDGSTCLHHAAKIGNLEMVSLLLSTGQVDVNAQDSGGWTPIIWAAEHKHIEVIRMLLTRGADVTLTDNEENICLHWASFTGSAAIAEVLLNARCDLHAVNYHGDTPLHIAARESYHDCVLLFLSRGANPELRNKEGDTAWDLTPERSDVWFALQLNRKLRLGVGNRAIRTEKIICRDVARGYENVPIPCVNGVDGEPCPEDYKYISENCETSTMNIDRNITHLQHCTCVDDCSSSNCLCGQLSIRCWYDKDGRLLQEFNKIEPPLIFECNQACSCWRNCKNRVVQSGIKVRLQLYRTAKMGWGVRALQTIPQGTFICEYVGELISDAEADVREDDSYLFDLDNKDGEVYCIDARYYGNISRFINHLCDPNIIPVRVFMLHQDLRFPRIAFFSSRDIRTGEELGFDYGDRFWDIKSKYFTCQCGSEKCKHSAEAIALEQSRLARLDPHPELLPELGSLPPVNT
The experiment in a line: G9a SAHH-coupled assay. In kind it is biochemical. Conditions: versus compound 5.

Setting [6] is: Homo sapiens, MDA-MB-231, 48 h, read-out: Cellular IC50 (Reduction of H3K9me2 (ICW)), Table 2, MDA-MB-231 cells, 48 h.
Where [7] appears, read: Homo sapiens, MDA-MB-231, 48 h, read-out: Cellular IC50 (Reduction of H3K9me2 (ICW)), Table 4, MDA-MB-231 cells, 48 h.
The mark [8] stands for this setting: read-out: Cellular IC50 (Reduction of H3K9me2 (ICW)), Table 2, MDA-MB-231 cells, 48 h.

Broadly, the IC50 is the concentration at which inhibition is half-maximal. As for `COc1cc2c(NC3CCN(C)CC3)nc(N3CCCN(C)CC3)nc2cc1OCCCN(C)C` [Compound 2], the IC50 in assay [1] (Homo sapiens, MDA-MB-231, 48 h, read-out: Cellular IC50 (Reduction of H3K9me2 (ICW)), Table 1, MDA-MB-231 cells, 48 h) is more than 5000 nM.
One may read the EC50 as the concentration at which the effect is half-maximal. In the case of `COc1cc2c(NC3CCN(C(C)C)CC3)nc(C3CCCCC3)nc2cc1OCCCN1CCCC1` [Compound 5, 2-Cyclohexyl-N-(1-isopropylpiperidin-4-yl)-6-methoxy-7-(3-(pyrrolidin-1-yl)propoxy)quinazolin-4-amine], the half-maximal inhibitory concentration (IC50) in [1] (Homo sapiens, MDA-MB-231, 48 h, read-out: Cellular IC50 (Reduction of H3K9me2 (ICW))) was 81 nM; in assay [1] (setting [6]), not above 100 nM; in assay [1] (Homo sapiens, MDA-MB-231, 48 h, read-out: ICW IC50), 81 nM; in assay [2], 70 nM; in [3] it was 59 nM; in assay [4], 48 nM. Moreover, in assay [5], the IC50 was determined as 210 nM. Further, the EC50 in the assay with MDA-MB-231 cells, in the assay with HCT116 wt cells and in the assay on HCT116 p53−/− cells was 11000 nM in each case.
Take `COc1cc2c(NC3CCN(C4CCCCC4)CC3)nc(N3CCCN(C(C)C)CC3)nc2cc1OCCCN1CCCCC1` [Compound 6, N-(1-cyclohexylpiperidin-4-yl)-2-(4-isopropyl-1,4-diazepan-1-yl)-6-methoxy-7-(3-(piperidin-1-yl)propoxy)quinazolin-4-amine]: the IC50 in assay [1] (setting [7]) was less than 60 nM.
Take `COc1cc2c(NC3CCN(CC4CCCCC4)CC3)nc(N3CCCN(C(C)C)CC3)nc2cc1OCCCN1CCCCC1` [Compound 7, N-(1-(cyclohexylmethyl)piperidin-4-yl)-2-(4-isopropyl-1,4-diazepan-1-yl)-6-methoxy-7-(3-(piperidin-1-yl)propoxy)quinazolin-4-amine]: in [1] (setting [7]), the IC50 was less than 60 nM.
With `COc1cc2c(NC3CCN(C(C)C)CC3)nc(N3CCCN(C4CCCCC4)CC3)nc2cc1OCCCN1CCCC1` [Compound 17d, 2-(4-Cyclohexyl-1,4-diazepan-1-yl)-N-(1-isopropylpiperidin-4-yl)-6-methoxy-7-(3-(pyrrolidin-1-yl)propoxy)quinazolin-4-amine], the 50% inhibitory concentration (IC50) in assay [1] (setting [6]) is not above 100 nM; in assay [1] (setting [8]) it was 100 nM.
Consider `COc1cc2c(NC3CCN(C(C)C)CC3)nc(N3CCCN(CC4CCCCC4)CC3)nc2cc1OCCCN1CCCC1` [Compound 17e, 2-(4-(Cyclohexylmethyl)-1,4-diazepan-1-yl)-N-(1-isopropylpiperidin-4-yl)-6-methoxy-7-(3-(pyrrolidin-1-yl)propoxy)quinazolin-4-amine], for which the IC50 in [1] (setting [6]) is not above 100 nM.
On the same count and under the same terms, under `COc1cc2c(NC3CCN(C(C)C)CC3)nc(N3CCCN(Cc4ccccc4)CC3)nc2cc1OCCCN1CCCC1` [Compound 17g, 2-(4-Benzyl-1,4-diazepan-1-yl)-N-(1-isopropylpiperidin-4-yl)-6-methoxy-7-(3-(pyrrolidin-1-yl)propoxy)quinazolin-4-amine] stands not above 100 nM.
Take `COc1cc2c(NC3CCN(C(C)C)CC3)nc(N3CCCCCC3)nc2cc1OCCCN1CCCC1` [Compound 17i, 2-(Azepan-1-yl)-N-(1-isopropylpiperidin-4-yl)-6-methoxy-7-(3-(pyrrolidin-1-yl)propoxy)quinazolin-4-amine]: the IC50 is not above 100 nM in assay [1] (setting [6]) and 100 nM in assay [1] (setting [8]).
On to `COc1cc2c(NC3CCN(C(C)C)CC3)nc(C3CCCCC3)nc2cc1OCCCN1CCCCC1` [Compound 24a, 2-Cyclohexyl-N-(1-isopropylpiperidin-4-yl)-6-methoxy-7-(3-(piperidin-1-yl)propoxy)quinazolin-4-amine], for which the “Fold lower potency in the G9a biochemical assay compared to compound 5” value on G9a was “about 10 fold”.
As to `COc1cc2c(NC3CCN(C(C)C)CC3)nc(N3CCCN(C(C)C)CC3)nc2cc1OCCCN1CCCCC1` [Compound 25, 2-(4-Isopropyl-1,4-diazepan-1-yl)-N-(1-isopropylpiperidin-4-yl)-6-methoxy-7-(3-(piperidin-1-yl)propoxy)quinazolin-4-amine], in assay [1] (setting [7]), the IC50 was less than 60 nM.
Same read-out and setting: in the case of `COc1cc2c(NC3CCN(C4CCCCC4)CC3)nc(N3CCCN(C)CC3)nc2cc1OCCCN1CCCCC1` [Compound 26, N-(1-cyclohexylpiperidin-4-yl)-6-methoxy-2-(4-methyl-1,4-diazepan-1-yl)-7-(3-(piperidin-1-yl)propoxy)quinazolin-4-amine] it was less than 60 nM.
